From the kinase profiling compilation of Christmann-Franck et al. (2016)

What was measured:
Assay in all cases: radiometric filter-binding kinase assay
AURKB (human) = AURKB (human) (UniProt Q96GD4)
BRSK1 (human) = BRSK1 (human) (UniProt Q8TDC3)
BTK (human) = BTK (human) (UniProt Q06187)
CAMKK2 (human) = CAMKK2 (human) (UniProt Q96RR4)
CSK (human) = CSK (human) (UniProt P41240); conditions: compound 10.0 µM
CSNK1D (human) = CSNK1D (human) (UniProt P48730)
CaMK1 (human) = CaMK1 (human) (UniProt Q14012)
DYRK1A (human) = DYRK1A (human) (UniProt Q13627)
DYRK2 (human) = DYRK2 (human) (UniProt Q92630)
EPHA4 (human) = EPHA4 (human) (UniProt P54764)
EPHB2 (human) = EPHB2 (human) (UniProt P29323)
EPHB3 (human) = EPHB3 (human) (UniProt P54753)
HIPK2 (human) = HIPK2 (human) (UniProt Q9H2X6)
IGF1R (human) = IGF1R (human) (UniProt P08069)
IKBKB (human) = IKBKB (human) (UniProt O14920)
IKBKE (human) = IKBKE (human) (UniProt Q14164)
MAP2K2 (human) = MAP2K2 (human) (UniProt P36507)
MAP3K11 (human) = MAP3K11 (human) (UniProt Q16584)
MAP3K7 TAB1 (human) = MAP3K7 TAB1 (human) (UniProt Q15750+O43318)
MAPK12 (human) = MAPK12 (human) (UniProt P53778)
MAPK14 (human) = MAPK14 (human) (UniProt Q16539)
MAPK15 (human) = MAPK15 (human) (UniProt Q8TD08)
MAPK8 (human) = MAPK8 (human) (UniProt P45983)
MAPK9 (human) = MAPK9 (human) (UniProt P45984)
MAPKAPK2 (human) = MAPKAPK2 (human) (UniProt P49137)
MAPKAPK5 (human) = MAPKAPK5 (human) (UniProt Q8IW41)
MELK (human) = MELK (human) (UniProt Q14680)
MINK1 (human) = MINK1 (human) (UniProt Q8N4C8)
MKNK2 (human) = MKNK2 (human) (UniProt Q9HBH9)
PAK4 (human) = PAK4 (human) (UniProt O96013)
PAK7 (human) = PAK7 (human) (UniProt Q9P286)
PIM1 (human) = PIM1 (human) (UniProt P11309)
PRKACA (human) = PRKACA (human) (UniProt P17612)
RIPK2 (human) = RIPK2 (human) (UniProt O43353)
YES1 (human) = YES1 (human) (UniProt P07947)

MAPK12 (human), sequence (P53778 whole entry, looked up): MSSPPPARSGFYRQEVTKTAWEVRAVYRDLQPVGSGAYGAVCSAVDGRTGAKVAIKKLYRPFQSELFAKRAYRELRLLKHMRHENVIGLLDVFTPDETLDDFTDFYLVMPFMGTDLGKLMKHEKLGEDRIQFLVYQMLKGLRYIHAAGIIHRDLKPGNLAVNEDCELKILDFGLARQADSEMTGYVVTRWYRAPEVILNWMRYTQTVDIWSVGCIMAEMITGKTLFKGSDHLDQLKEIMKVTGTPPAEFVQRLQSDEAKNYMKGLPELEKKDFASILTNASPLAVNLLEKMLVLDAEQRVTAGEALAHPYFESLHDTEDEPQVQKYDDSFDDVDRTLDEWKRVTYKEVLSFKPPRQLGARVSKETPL
MAPK9 (human), sequence (P45984 whole entry, looked up): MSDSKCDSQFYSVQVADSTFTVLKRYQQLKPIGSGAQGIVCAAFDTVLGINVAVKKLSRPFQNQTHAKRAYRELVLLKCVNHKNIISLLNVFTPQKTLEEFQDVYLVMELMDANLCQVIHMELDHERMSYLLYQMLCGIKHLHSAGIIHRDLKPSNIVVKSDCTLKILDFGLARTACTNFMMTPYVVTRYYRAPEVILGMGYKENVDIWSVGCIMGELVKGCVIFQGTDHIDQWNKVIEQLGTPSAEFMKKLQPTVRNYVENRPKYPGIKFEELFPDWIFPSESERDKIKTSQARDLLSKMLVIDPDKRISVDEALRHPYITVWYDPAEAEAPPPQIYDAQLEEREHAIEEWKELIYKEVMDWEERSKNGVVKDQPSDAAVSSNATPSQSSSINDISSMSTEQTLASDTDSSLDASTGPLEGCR
AURKB (human), sequence (Q96GD4 whole entry, looked up): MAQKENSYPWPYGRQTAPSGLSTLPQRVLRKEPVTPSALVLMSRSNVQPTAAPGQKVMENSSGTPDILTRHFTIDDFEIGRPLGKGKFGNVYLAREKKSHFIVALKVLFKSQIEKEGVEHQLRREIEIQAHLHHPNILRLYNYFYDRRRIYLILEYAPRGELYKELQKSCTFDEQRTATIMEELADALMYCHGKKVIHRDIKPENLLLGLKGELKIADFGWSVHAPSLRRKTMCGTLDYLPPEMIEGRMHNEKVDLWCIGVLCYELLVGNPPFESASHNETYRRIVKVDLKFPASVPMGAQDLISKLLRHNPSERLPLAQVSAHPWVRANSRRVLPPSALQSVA
MAP2K2 (human), sequence (P36507 whole entry, looked up): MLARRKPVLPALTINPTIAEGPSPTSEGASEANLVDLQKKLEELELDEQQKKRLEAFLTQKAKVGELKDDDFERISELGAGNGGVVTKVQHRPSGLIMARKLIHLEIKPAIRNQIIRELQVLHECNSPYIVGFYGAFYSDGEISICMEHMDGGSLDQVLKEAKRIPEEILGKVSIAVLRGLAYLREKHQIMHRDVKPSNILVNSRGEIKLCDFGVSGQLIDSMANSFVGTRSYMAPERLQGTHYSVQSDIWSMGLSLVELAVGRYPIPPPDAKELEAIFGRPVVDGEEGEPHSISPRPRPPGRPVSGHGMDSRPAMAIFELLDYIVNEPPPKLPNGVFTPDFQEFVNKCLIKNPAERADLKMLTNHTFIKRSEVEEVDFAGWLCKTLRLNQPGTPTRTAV
EPHA4 (human), sequence (P54764 whole entry, looked up): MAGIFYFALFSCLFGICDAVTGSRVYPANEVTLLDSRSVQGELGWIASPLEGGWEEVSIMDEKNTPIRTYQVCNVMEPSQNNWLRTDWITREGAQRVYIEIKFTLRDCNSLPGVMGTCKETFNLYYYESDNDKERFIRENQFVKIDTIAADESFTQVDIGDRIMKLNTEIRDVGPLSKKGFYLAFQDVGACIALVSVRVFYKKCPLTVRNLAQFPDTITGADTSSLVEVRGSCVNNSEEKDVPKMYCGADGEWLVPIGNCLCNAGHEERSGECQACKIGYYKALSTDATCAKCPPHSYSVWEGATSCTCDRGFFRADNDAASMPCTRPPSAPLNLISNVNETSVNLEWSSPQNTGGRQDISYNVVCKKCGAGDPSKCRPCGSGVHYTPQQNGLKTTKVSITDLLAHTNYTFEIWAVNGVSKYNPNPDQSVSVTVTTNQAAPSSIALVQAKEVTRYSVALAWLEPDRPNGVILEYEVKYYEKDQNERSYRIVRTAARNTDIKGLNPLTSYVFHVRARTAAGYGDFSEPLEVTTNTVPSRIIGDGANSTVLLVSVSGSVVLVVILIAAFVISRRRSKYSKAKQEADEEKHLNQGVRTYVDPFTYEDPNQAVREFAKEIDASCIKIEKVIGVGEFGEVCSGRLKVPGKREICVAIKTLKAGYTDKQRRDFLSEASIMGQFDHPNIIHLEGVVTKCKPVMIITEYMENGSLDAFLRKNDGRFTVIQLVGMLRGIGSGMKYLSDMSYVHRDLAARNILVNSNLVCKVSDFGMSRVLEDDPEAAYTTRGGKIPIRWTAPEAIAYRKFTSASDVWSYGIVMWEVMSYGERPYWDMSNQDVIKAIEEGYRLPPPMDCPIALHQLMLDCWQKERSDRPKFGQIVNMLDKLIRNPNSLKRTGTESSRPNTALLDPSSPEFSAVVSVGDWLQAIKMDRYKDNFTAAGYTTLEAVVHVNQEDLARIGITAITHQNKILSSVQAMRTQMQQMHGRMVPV
MAPK8 (human), sequence (P45983 whole entry, looked up): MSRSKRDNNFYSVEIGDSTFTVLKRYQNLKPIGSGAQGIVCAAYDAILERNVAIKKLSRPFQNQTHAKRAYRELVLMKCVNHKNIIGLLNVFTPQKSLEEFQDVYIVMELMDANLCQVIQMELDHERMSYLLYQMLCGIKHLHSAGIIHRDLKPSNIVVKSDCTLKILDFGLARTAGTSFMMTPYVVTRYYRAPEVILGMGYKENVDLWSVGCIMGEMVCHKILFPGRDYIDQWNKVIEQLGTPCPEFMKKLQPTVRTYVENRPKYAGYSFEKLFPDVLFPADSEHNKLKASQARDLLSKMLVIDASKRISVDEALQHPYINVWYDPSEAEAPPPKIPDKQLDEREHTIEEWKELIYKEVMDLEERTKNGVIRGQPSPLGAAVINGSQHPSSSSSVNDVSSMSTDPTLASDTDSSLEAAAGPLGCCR
IKBKE (human), sequence (Q14164 whole entry, looked up): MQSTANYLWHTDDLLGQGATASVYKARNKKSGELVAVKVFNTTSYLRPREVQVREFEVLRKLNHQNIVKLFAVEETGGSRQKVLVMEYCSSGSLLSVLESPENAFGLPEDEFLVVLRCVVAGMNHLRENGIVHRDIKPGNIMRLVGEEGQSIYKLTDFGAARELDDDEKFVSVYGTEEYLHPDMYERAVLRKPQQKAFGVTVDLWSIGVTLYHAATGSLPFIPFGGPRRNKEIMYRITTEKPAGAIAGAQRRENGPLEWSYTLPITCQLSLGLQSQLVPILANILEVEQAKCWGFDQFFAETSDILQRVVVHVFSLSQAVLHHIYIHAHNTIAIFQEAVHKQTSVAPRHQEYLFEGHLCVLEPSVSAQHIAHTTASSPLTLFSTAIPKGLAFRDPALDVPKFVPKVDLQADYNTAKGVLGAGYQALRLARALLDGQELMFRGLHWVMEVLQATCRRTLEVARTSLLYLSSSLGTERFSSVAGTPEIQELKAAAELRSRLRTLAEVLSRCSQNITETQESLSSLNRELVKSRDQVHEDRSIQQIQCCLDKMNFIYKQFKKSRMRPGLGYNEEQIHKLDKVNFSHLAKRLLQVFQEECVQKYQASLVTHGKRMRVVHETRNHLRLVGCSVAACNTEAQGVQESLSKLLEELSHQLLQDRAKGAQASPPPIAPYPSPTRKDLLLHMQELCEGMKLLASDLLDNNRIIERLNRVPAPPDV
IKBKB (human), sequence (O14920 whole entry, looked up): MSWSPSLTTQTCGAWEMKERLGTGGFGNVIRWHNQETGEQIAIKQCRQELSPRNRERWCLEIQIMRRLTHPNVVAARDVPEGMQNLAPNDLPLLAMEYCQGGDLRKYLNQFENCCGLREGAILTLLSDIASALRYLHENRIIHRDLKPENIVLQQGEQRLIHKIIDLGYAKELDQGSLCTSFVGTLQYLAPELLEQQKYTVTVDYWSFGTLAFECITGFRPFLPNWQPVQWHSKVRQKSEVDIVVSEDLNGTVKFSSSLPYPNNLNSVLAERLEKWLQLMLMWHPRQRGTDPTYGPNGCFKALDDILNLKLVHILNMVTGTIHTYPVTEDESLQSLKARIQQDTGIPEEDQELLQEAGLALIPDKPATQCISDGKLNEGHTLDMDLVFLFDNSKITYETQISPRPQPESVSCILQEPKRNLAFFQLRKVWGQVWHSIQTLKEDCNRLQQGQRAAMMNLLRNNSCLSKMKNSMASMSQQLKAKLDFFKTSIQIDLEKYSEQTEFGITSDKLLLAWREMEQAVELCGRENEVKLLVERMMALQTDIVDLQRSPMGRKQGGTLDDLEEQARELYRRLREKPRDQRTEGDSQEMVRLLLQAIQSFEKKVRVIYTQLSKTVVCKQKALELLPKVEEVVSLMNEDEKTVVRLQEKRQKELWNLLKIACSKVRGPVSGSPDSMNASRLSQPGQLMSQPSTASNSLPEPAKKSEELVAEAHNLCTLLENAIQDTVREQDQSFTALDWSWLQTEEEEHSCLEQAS
MAPK15 (human), sequence (Q8TD08 whole entry, looked up): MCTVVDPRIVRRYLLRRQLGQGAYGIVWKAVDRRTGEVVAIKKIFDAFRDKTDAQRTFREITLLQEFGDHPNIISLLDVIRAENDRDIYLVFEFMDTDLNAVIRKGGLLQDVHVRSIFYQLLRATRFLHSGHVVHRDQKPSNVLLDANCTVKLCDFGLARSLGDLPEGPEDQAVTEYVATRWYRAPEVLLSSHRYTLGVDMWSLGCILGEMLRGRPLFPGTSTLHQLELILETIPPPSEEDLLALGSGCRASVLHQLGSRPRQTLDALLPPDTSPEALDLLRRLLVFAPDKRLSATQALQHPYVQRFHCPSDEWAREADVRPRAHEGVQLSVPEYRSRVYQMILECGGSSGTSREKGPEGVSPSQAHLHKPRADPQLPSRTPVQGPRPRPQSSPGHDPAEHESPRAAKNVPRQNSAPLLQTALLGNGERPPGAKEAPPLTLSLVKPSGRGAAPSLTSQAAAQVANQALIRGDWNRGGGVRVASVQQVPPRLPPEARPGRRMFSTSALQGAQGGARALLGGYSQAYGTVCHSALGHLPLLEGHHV

Question: What does the source list for `Cc1ccc(-c2ccc3c(ccc4sc5c(c43)NC[C@@H](C)NC5=O)n2)cn1`?
Answer: residual activity (AURKB (human); compound 0.1 µM): 109%; residual activity (AURKB (human); compound 1.0 µM): 99%; residual activity (AURKB (human); compound 10.0 µM): 64%; residual activity (BRSK1 (human); compound 0.1 µM): 86%; residual activity (BRSK1 (human); compound 1.0 µM): 55%; residual activity (BRSK1 (human); compound 10.0 µM): 29%; residual activity (BTK (human); compound 0.1 µM): 120%; residual activity (BTK (human); compound 1.0 µM): 118%; residual activity (BTK (human); compound 10.0 µM): 107%; residual activity (CAMKK2 (human); compound 0.1 µM): 107%; residual activity (CAMKK2 (human); compound 10.0 µM): 28%; residual activity (CSK (human)): 106%; residual activity (CSNK1D (human); compound 0.1 µM): 96%; residual activity (CSNK1D (human); compound 1.0 µM): 96%; residual activity (CSNK1D (human); compound 10.0 µM): 92%; residual activity (CaMK1 (human); compound 0.1 µM): 96%; residual activity (CaMK1 (human); compound 1.0 µM): 97%; residual activity (CaMK1 (human); compound 10.0 µM): 68%; residual activity (DYRK1A (human); compound 0.1 µM): 80%; residual activity (DYRK1A (human); compound 1.0 µM): 31%; residual activity (DYRK1A (human); compound 10.0 µM): 8%; residual activity (DYRK2 (human); compound 0.1 µM): 101%; residual activity (DYRK2 (human); compound 1.0 µM): 105%; residual activity (DYRK2 (human); compound 10.0 µM): 52%; residual activity (EPHA4 (human); compound 0.1 µM): 99%; residual activity (EPHA4 (human); compound 1.0 µM): 103%; residual activity (EPHA4 (human); compound 10.0 µM): 78%; residual activity (EPHB2 (human); compound 0.1 µM): 99%; residual activity (EPHB2 (human); compound 1.0 µM): 110%; residual activity (EPHB2 (human); compound 10.0 µM): 111%; residual activity (EPHB3 (human); compound 0.1 µM): 98%; residual activity (EPHB3 (human); compound 1.0 µM): 88%; residual activity (EPHB3 (human); compound 10.0 µM): 85%; residual activity (HIPK2 (human); compound 1.0 µM): 113%; residual activity (HIPK2 (human); compound 10.0 µM): 78%; residual activity (IGF1R (human); compound 0.1 µM): 101%; residual activity (IGF1R (human); compound 1.0 µM): 108%; residual activity (IGF1R (human); compound 10.0 µM): 114%; residual activity (IKBKB (human); compound 0.1 µM): 115%; residual activity (IKBKB (human); compound 1.0 µM): 109%; residual activity (IKBKB (human); compound 10.0 µM): 101%; residual activity (IKBKE (human); compound 0.1 µM): 98%; residual activity (IKBKE (human); compound 1.0 µM): 95%; residual activity (IKBKE (human); compound 10.0 µM): 44%; residual activity (MAP2K2 (human); compound 0.1 µM): 113%; residual activity (MAP2K2 (human); compound 1.0 µM): 108%; residual activity (MAP2K2 (human); compound 10.0 µM): 79%; residual activity (MAP3K11 (human); compound 0.1 µM): 114%; residual activity (MAP3K11 (human); compound 1.0 µM): 102%; residual activity (MAP3K11 (human); compound 10.0 µM): 73%; residual activity (MAP3K7 TAB1 (human); compound 0.1 µM): 113%; residual activity (MAP3K7 TAB1 (human); compound 1.0 µM): 109%; residual activity (MAP3K7 TAB1 (human); compound 10.0 µM): 70%; residual activity (MAPK12 (human); compound 0.1 µM): 108%; residual activity (MAPK12 (human); compound 1.0 µM): 115%; residual activity (MAPK12 (human); compound 10.0 µM): 97%; residual activity (MAPK14 (human); compound 0.1 µM): 94%; residual activity (MAPK14 (human); compound 1.0 µM): 94%; residual activity (MAPK14 (human); compound 10.0 µM): 83%; residual activity (MAPK15 (human); compound 0.1 µM): 96%; residual activity (MAPK15 (human); compound 1.0 µM): 79%; residual activity (MAPK15 (human); compound 10.0 µM): 38%; residual activity (MAPK8 (human); compound 0.1 µM): 96%; residual activity (MAPK8 (human); compound 1.0 µM): 93%; residual activity (MAPK8 (human); compound 10.0 µM): 92%; residual activity (MAPK9 (human); compound 0.1 µM): 123%; residual activity (MAPK9 (human); compound 1.0 µM): 111%; residual activity (MAPK9 (human); compound 10.0 µM): 107%; residual activity (MAPKAPK2 (human); compound 0.1 µM): 24%; residual activity (MAPKAPK2 (human); compound 1.0 µM): 9%; residual activity (MAPKAPK2 (human); compound 10.0 µM): 2%; residual activity (MAPKAPK5 (human); compound 1.0 µM): 67%; residual activity (MAPKAPK5 (human); compound 10.0 µM): 24%; residual activity (MELK (human); compound 0.1 µM): 123%; residual activity (MELK (human); compound 10.0 µM): 77%; residual activity (MINK1 (human); compound 1.0 µM): 97%; residual activity (MINK1 (human); compound 10.0 µM): 40%; residual activity (MKNK2 (human); compound 0.1 µM): 111%; residual activity (MKNK2 (human); compound 10.0 µM): 26%; residual activity (PAK4 (human); compound 0.1 µM): 103%; residual activity (PAK4 (human); compound 1.0 µM): 88%; residual activity (PAK4 (human); compound 10.0 µM): 82%; residual activity (PAK7 (human); compound 0.1 µM): 108%; residual activity (PAK7 (human); compound 1.0 µM): 101%; residual activity (PAK7 (human); compound 10.0 µM): 101%; residual activity (PIM1 (human); compound 0.1 µM): 93%; residual activity (PIM1 (human); compound 1.0 µM): 58%; residual activity (PIM1 (human); compound 10.0 µM): 17%; residual activity (PRKACA (human); compound 0.1 µM): 109%; residual activity (PRKACA (human); compound 1.0 µM): 119%; residual activity (PRKACA (human); compound 10.0 µM): 108%; residual activity (RIPK2 (human); compound 0.1 µM): 93%; residual activity (RIPK2 (human); compound 10.0 µM): 39%; residual activity (YES1 (human); compound 0.1 µM): 112%; residual activity (YES1 (human); compound 1.0 µM): 89%; residual activity (YES1 (human); compound 10.0 µM): 55%
